Test results taken from publication PMC7148433 (Biochemical Journal, 2020).

Target: T1, lipocalin-type prostaglandin D synthase (L-PGDS) (Homo sapiens, UniProt P41222)
T1 sequence (P41222 23-190): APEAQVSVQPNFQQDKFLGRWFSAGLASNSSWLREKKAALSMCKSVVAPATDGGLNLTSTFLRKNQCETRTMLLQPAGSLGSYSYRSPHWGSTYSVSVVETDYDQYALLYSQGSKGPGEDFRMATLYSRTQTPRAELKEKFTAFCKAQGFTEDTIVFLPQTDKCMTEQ
Test: tryptophan fluorescence quenching
Type: binding

With C=CC1=C(C)C2=Cc3c(C=C)c(C)c4[n]3[Fe][n]3c(c(C)c(CCC(=O)O)c3=CC3=NC(=C4)C(C)=C3CCC(=O)O)=CC1=N2 [heme] the Kd was 40 nM.
